Assay results: patent publication US20210290676A1, “IMPROVING THE EFFICACY AND SAFETY OF ADOPTIVE CELLULAR THERAPIES” (University of Southern California, priority 2018, published 2021)

Legend:
Format in all cases: cell-based, human
[1] = tested on: Pgp+ (DiOC2(3)-dye effluxing) T cells; test: DiOC2(3) dye efflux flow cytometry of inhibitor-treated T cells; details: treatment for 13 days, IL2 + CD3 and CD28 antibodies
Protocol: (§1) The use of P-glycoprotein (Pgp)-mediated efflux of DiOC2(3) to isolate stem like T cells for adoptive cellular therapy has been described in application no. […] In the following examples, DiOC2(3) staining was used to study the effect of different inhibitors on generation of stem like T cells.
(§2) DAY 0: Blood was obtained from unidentified donor. After RBC lysis, PBMC were collected using Ficoll-Hypaque separation. […] T cells were cultured in three different conditions: • 1. XVIVO 15 medium (Lonza) with IL2 50 IU/ml, CD3 antibody (30 ng/ml) and CD28 antibody (30 ng/ml). • 2. XVIVO 15 medium (Lonza) with CD3 antibody (30 ng/ml) and CD28 antibody (30 ng/ml). • 3. XVIVO 15 medium (Lonza) with IL2 50 IU/ml DAY 1: Cells were plated in a 6-well plate at a density of 1 million cells in 2 ml/of media (as described above) and treated with different inhibitors
(§3) The cell growth medium was changed in 6-well plates and fresh drugs were added at same concentration for one more week.
(§4) […] (DAY 11): Culture medium was changed and fresh drugs were added in 6-well plates.
(§5) Subsequently, cells were washed with RPMI medium and dye was effluxed at 37° C. for 90 min. Cells were washed with […], stained with CD62L-APC (5 μl/100 μl/sample) at 4° C. for 1 h, washed twice with PBS+1% FBS and analyzed on flow cytometer to check if these drugs treatment leads to increase in Pgp+/CD62L positive population.
(§6) Day 0: Blood was obtained from unidentified donor. After RBC lysis, PBMC were collected using Ficoll-Hypaque separation. 200 million T cells were isolated from PBMCs using CD3 microbeads. T cells were cultured overnight in XVIVO 15 medium (Lonza) with IL2 (50 IU/ml), 30 ng/ml of CD3 and CD28 antibodies
(§7) Day 1: Cells were plated in 24-well plates at a density of 0.3 million cells/ml in each well and treated with different drugs.
(§8) On day 7, culture medium was replaced with fresh medium with fresh drugs.
(§9) On day 13, culture medium was replaced with fresh medium and fresh drugs. Half of the cells were transferred to 6-well plates.
(§10) Day 14: An aliquot of cells with all the treatments listed above (for 13 days) was used to stain the cells with DiOC2(3) (60 ng/ml in RPMI medium) at 4° C. for 40 min, washed with RPMI medium, DiOC2(3) dye was effluxed at 37° C. for 90 min, washed with PBS+1% FBS, stained with CD62L-APC antibody. CD62L is a marker for resting T cells. (5 μl/100 μl/sample) at 4° C. for 1 h, washed twice with PBS+1% FBS and analyzed on flow cytometer to check if these drugs are affecting the dye-effluxing or Pgp+ (i.e., DiOC2(3)-dull) T-cell population.

[2] = tested on: Pgp+ (DiOC2(3)-dye effluxing cells) and CD62L+ T cells; test: DiOC2(3) dye efflux plus CD62L-APC staining, flow cytometry of inhibitor-treated T cells; details: treatment for 13 days, IL2 + CD3 and CD28 antibodies
Protocol: as §1, §2, §3, §4, §5, §6, §7, §8, §9, §10

[3] = tested on: CD8+CD45RA+CCR7+CD62L+ T cells; test: Flow cytometry for CD8, CD45RA, CCR7 and CD62L on inhibitor-treated T cells; details: cells cultured for 14 days
Protocol: as §2
(§11) A second aliquot of the cells cultured for 13 days with all the treatments listed above (1-21) was washed with PBS+1% FBS, stained with CD8-PerCP, CD45RA-FITC, CCR7-PE and CD62L-APC (5% Y/100 μl/sample for each of 4 antibodies) at 4° C. for 1 h, washed twice with PBS+100 FBS and analyzed on flow cytometer to check if these drugs are enriching T stem cells showing surface expression of CD8+CD45RA+CCR7+CD62L+.
as §6, §7, §8, §9
as §11, with “14” for “13”, “above” for “above (1-21)”, “(5 ul/100 ul/sample” for “(5% Y/100 μl/sample”, “PBS+1%” for “PBS+100”, “enriching for” for “enriching”, “T” for “T stem”

[4] = tested on: CD45RA+CCR7+CD62L+ T cells; test: Flow cytometry for CD45RA, CCR7 and CD62L on inhibitor-treated T cells (all T cells); details: cells cultured for 14 days
Protocol: as §2, §11, §6, §7, §8, §9
as §11, with “14” for “13”, “above” for “above (1-21)”, “(5 ul/100 ul/sample” for “(5% Y/100 μl/sample”, “PBS+1%” for “PBS+100”, “enriching for” for “enriching”, “T” for “T stem”

SMILES | p2: pgp+ from Live cells ([1]; 1 μM) | p2: pgp+ from Live cells ([1]; 2 μM) | p5: double +ve pgp+ and CD62L-APC+ from Live cells ([2]; 1 μM) | p5: double +ve pgp+ and CD62L-APC+ from Live cells ([2]; 2 μM) | GATE P4 CD8(PerCP)+, CD45RA(FITC)+, CCR7 (PE)+, CD62L(APC) ([3]; 1 μM) | GATE P4 CD8(PerCP)+, CD45RA(FITC)+, CCR7 (PE)+, CD62L(APC) ([3]; 2 μM) | GATE P6 CD45RA(FITC)+, CCR7 (PE)+, CD62L(APC) ([4]; 1 μM) | GATE P6 CD45RA(FITC)+, CCR7 (PE)+, CD62L(APC) ([4]; 2 μM) | p2: pgp+ from Live cells ([1]; 100 nM) | p2: pgp+ from Live cells ([1]; 200 nM) | p5: double +ve pgp+ and CD62L-APC+ from Live cells ([2]; 100 nM) | p5: double +ve pgp+ and CD62L-APC+ from Live cells ([2]; 200 nM) | GATE P4 CD8(PerCP)+, CD45RA(FITC)+, CCR7 (PE)+, CD62L(APC) ([3]; 100 nM) | GATE P4 CD8(PerCP)+, CD45RA(FITC)+, CCR7 (PE)+, CD62L(APC) ([3]; 200 nM) | GATE P6 CD45RA(FITC)+, CCR7 (PE)+, CD62L(APC) ([4]; 100 nM) | GATE P6 CD45RA(FITC)+, CCR7 (PE)+, CD62L(APC) ([4]; 200 nM) | p2: pgp+ from Live cells ([1]; 500 nM) | p5: double +ve pgp+ and CD62L-APC+ from Live cells ([2]; 500 nM) | GATE P4 CD8(PerCP)+, CD45RA(FITC)+, CCR7 (PE)+, CD62L(APC) ([3]; 500 nM) | GATE P6 CD45RA(FITC)+, CCR7 (PE)+, CD62L(APC) ([4]; 500 nM)
Cc1cc(C)c(CNC(=O)c2cc(-c3ccc(N4CCN(C)CC4)nc3)cc3c2c(C)cn3C(C)C)c(=O)[nH]1 [GSK503] | 47.87 | 56.13 | 15.79 | 19.99 | 75.24% | 75.8% | 63.54% | 62.62% |  |  |  |  |  |  |  |  |  |  |  | 
CCS(=O)(=O)N1CCC([C@@H](C)n2c(C)c(C(=O)NCc3c(OC)cc(C)[nH]c3=O)c3ccccc32)CC1 [CP1169] |  |  |  |  |  |  |  |  | 25.52 | 30.65 | 4.68 | 6.4 | 81.07% | 75.83% | 70.48% | 66.23% |  |  |  | 
CCCc1cc(C)[nH]c(=O)c1CNC(=O)c1cc(-c2ccc(N3CCN(C(C)C)CC3)nc2)cc2c1cnn2C(C)C [UNC1999] |  |  |  |  |  |  |  |  | 36.8 |  | 11.06 |  | 71.75% |  | 59.08% |  | 31.14 | 8.9 | 74.57% | 60.97%
